Laboratory results reported in patent US20130102535A1, “Method for Preventing Myocardial Ischemia” (Shanghai Bajiayi Pharmaceutical Science and Technology Co. …, priority 2009, published 2013).
Where “and” joins values, the source holds several entries; their conditions need not be identical. Equal values may be shown once.

Experiments:
[1] = test system: acute myocardial ischemia rats (coronary artery ligation); assay: Serum creatine kinase (CK) and lactic dehydrogenase (LDH) of acute myocardial ischemia rats; assay type: in vivo, Sprague-Dawley male rats; settings: blood at 5 hours after coronary artery ligation, x ± SD; for LDH activity in blood serum: P < 0.01 vs model group; for CK activity in blood serum: P < 0.05 vs model group
Description: Sprague-Dawley male rats of clean grade weighting 200-220 g were supplied by the animal experimental center of the Second Military Medical University (license number: SCXK (Shanghai)-2007-0003). • 2.2.2 Experimental groups
Experimental rats were randomly divided into four groups: sham group: n=7, model group: n=8, MLIF low-dose group: n=8, MLIF high-dose group: n=9. The dose of medicine could be administrated according to rat body weight. MLIF low-dose group and MLIF high-dose group were administrated by tail intravenous injection prepared with normal saline as solvent at the dose of 0.15 mg/kg and 0.5 mg/kg, respectively. • 2.2.3 Coronary artery ligation and determination of CK and LDH in blood serum
Coronary artery ligations of rats were carried out as described previously. 3m1 blood sample of each animal was taken from femoral artery at 5 hours after coronary artery ligation and the blood serum was collected according to the method of convengtional centrifugalization. The creatine kinase (CK) and lactic dehydrogenase (LDH) activities in blood serum were measured by semi-automatic biochemical analyzer. • 2.2.4 Data and statistics analysis
(§1) All experimental data are given as x±SD. Differences between the groups were calculated by analysis of variance (SPSS 10.0).

[2] = test system: rat myocardial ischemia models induced by coronary artery ligation; assay: Myocardial infarction area of rats after coronary artery ligation (N-BT staining); assay type: in vivo, Sprague-Dawley male rats; settings: 5 hours after coronary artery ligation, x ± SD
Description: Sprague-Dawley male rats of clean grade weighting 200-220 g were supplied by the animal experimental center of the Second Military Medical University (license number: SCXK (Shanghai)-2007-0003). • 2.1.2 Experimental groups
Experimental rats were randomly divided into four groups: sham group: n=8, model group: n=9, MLIF low-dose group: n=11, MLIF high-dose group: n=12. The dose of medicine could be administrated according to rat body weight. MLIF low-dose group and MLIF high-dose group were administrated by tail intravenous injection prepared with normal saline as solvent at the dose of 0.15 mg/kg and 0.5 mg/kg, respectively. • 2.1.3 Coronary artery ligation and measurement of myocardial infarction area of rats
The Sprague-Dawley male rats were abdomen anesthetized with 25% urethane (0.4 ml/100 g) and fixated at supine position. The chest was cut open among the fifth rib at left, and then the fourth and fifth ribs were cut off along the left side of sterna at 2 mm. The pericardium was snipped off with heart exposed, and a 0/3 suture line was passed through the left anterior descending coronary artery. The rats were administrated by tail intravenous injection slowly. After 10 minutes, the left anterior descending coronary artery was ligated rapidly and the heart was returned to its chest, removing the air within the thorax by hand, closing the thorax and tightening the purse-string suture rapidly. The entire process of opening and closing chest was performed within 30 seconds. The coronary arteries of rats of sham group were not ligated since the myocardial ischemia would be caused by coronary artery ligation.
The rats were administrated by tail intravenous injection with the dose of 0.15 mg/kg (MLIF low-dose group) and 0.5 mg/kg (MLIF high-dose group) at 15 minutes after coronary artery ligation with the same volume of normal saline administrated in sham group and model group. Each group of animals was executed at 5 hours after coronary artery ligation. The heart was taken out and the heart ventricle muscle was transversely chipped into 5 slices, the cut position of which was parallel to coronary sulcus under the coronary artery ligation line. The five slices of the heart ventricle muscle were stained with Nitroblue tetrazolium (N-BT) for 15 minutes with shaking. The normal heart ventricle muscle was dyed into dark blue while that of the area of myocardial infarction was unstained with normally light yellow. The area of myocardial infarction was isolated by a dissecting microscope and the whole heart weight, the left ventricle weight and the area of myocardial infarction weight were weighed, respectively, the percent (%) of area of myocardial infarction weight to whole heart weight were quantified as an measure on myocardial infarction area ranges. • 2.1.4 Data and statistics analysis
as §1

[3] = MLIF high-dose group 0.5 mg/kg tail i.v.
[4] = MLIF low-dose group 0.15 mg/kg tail i.v.
[5] = MLIF high-dose group 0.5 mg/kg tail i.v., P < 0.01 vs model group
[6] = MLIF low-dose group 0.15 mg/kg tail i.v., P < 0.05 vs model group

Met-Gln-Cys-Asn-Ser (MQCNS) [MLIF]
LDH activity in blood serum [1, 3]: 3642±817 IU/L and 3642 ± 817^ΔΔ, ** IU/L
CK activity in blood serum [1, 3]: 5244±1787.8 IU/L and 5244 ± 1787.8^ΔΔ, * IU/L
LDH activity in blood serum [1, 4]: 3156±864.1 IU/L and 3156 ± 864.1^ΔΔ, ** IU/L
CK activity in blood serum [1, 4]: 5258±2114.3 IU/L and 5258 ± 2114.3^ΔΔ, * IU/L
area of myocardial infarction weight [2, 3]: 158 ± 22.4^ΔΔ mg
area of myocardial infarction/ left ventricle [2, 5]: 30±3.7% and 30 ± 3.7^ΔΔ, ** %
area of myocardial infarction/ whole heart [2, 5]: 20±2.7% and 20 ± 2.7^ΔΔ, ** %
area of myocardial infarction weight [2, 4]: 187 ± 22.8^ΔΔ mg
area of myocardial infarction/ left ventricle [2, 6]: 33±3.2% and 33 ± 3.2^ΔΔ, * %
area of myocardial infarction/ whole heart [2, 6]: 22±1.9% and 22 ± 1.9^ΔΔ, * %
